How the values were obtained:
Experiment in all cases: relative viability (nuclei count vs DMSO), 5 days (fraction); higher = more cells survive
[1] = tested on: ABC-1
Method in brief: (§1)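 Relative viability equals treated-well nuclei counts divided by vehicle-well nuclei counts. Counts came from 4× images of lung cancer cell lines grown in 1536-well plates for 5 days after pin-tool dosing on the day after seeding. Dosing used one drug alone or a fixed anchor-drug dose plus five library-drug doses (not always all listed) in √10 steps, and values are medians of duplicate plates.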

[2] = tested on: COR-L23
Method in brief: as §1

[3] = tested on: ChaGo-K-1
Method in brief: as §1

[4] = tested on: EMC-BAC-2
Method in brief: as §1

[5] = tested on: HARA
Method in brief: as §1

[6] = tested on: HCC-15
Method in brief: as §1

[7] = tested on: HCC-366
Method in brief: as §1

[8] = tested on: HCC-78
Method in brief: as §1

[9] = tested on: HOP-62
Method in brief: as §1

[10] = tested on: LC-2-ad
Method in brief: as §1

[11] = tested on: NCI-H1395
Method in brief: as §1

[12] = tested on: NCI-H1793
Method in brief: as §1

[13] = tested on: NCI-H1944
Method in brief: as §1

[14] = tested on: NCI-H1993
Method in brief: as §1

[15] = tested on: NCI-H2023
Method in brief: as §1

[16] = tested on: NCI-H2126
Method in brief: as §1

[17] = tested on: NCI-H2228
Method in brief: as §1

[18] = tested on: NCI-H23
Method in brief: as §1

[19] = tested on: NCI-H2405
Method in brief: as §1

[20] = tested on: NCI-H358
Method in brief: as §1

[21] = tested on: NCI-H838
Method in brief: as §1

[22] = tested on: SK-LU-1
Method in brief: as §1

COc1nc(C)cnc1NS(=O)(=O)c1cccnc1-c1ccc(-c2nnco2)cc1 [Zibotentan] + Cc1cc(Nc2cc(N3CCN(C)CC3)nc(Sc3ccc(NC(=O)C4CC4)cc3)n2)n[nH]1 [Tozasertib] (partner 0.1 µM)
relative viability ([1]; first compound 0.08 µM): 0.175
relative viability ([1]; first compound 0.253 µM): 0.163
relative viability ([1]; first compound 0.8 µM): 0.193
relative viability ([1]; first compound 2.53 µM): 0.201
relative viability ([2]; first compound 0.08 µM): 0.218
relative viability ([2]; first compound 0.253 µM): 0.216
relative viability ([2]; first compound 0.8 µM): 0.224
relative viability ([2]; first compound 2.53 µM): 0.337
relative viability ([3]; first compound 0.08 µM): 0.208
relative viability ([3]; first compound 0.253 µM): 0.218
relative viability ([3]; first compound 0.8 µM): 0.21
relative viability ([3]; first compound 2.53 µM): 0.24
relative viability ([4]; first compound 0.08 µM): 0.286
relative viability ([4]; first compound 0.8 µM): 0.293
relative viability ([4]; first compound 2.53 µM): 0.274
relative viability ([5]; first compound 0.08 µM): 0.0875
relative viability ([5]; first compound 0.253 µM): 0.102
relative viability ([5]; first compound 0.8 µM): 0.13
relative viability ([5]; first compound 2.53 µM): 0.28
relative viability ([6]; first compound 0.08 µM): 0.481
relative viability ([6]; first compound 0.253 µM): 0.314
relative viability ([6]; first compound 0.8 µM): 0.373
relative viability ([6]; first compound 2.53 µM): 0.402
relative viability ([7]; first compound 0.08 µM): 0.132
relative viability ([7]; first compound 0.253 µM): 0.0914
relative viability ([7]; first compound 0.8 µM): 0.0627
relative viability ([7]; first compound 2.53 µM): 0.156
relative viability ([8]; first compound 0.08 µM): 0.526
relative viability ([8]; first compound 0.253 µM): 0.393
relative viability ([8]; first compound 0.8 µM): 0.306
relative viability ([8]; first compound 2.53 µM): 0.435
relative viability ([9]; first compound 0.08 µM): 0.333
relative viability ([9]; first compound 0.253 µM): 0.371
relative viability ([9]; first compound 0.8 µM): 0.428
relative viability ([9]; first compound 2.53 µM): 0.359
relative viability ([10]; first compound 0.08 µM): 0.436
relative viability ([10]; first compound 0.8 µM): 0.574
relative viability ([10]; first compound 2.53 µM): 0.452
relative viability ([11]; first compound 0.08 µM): 0.74
relative viability ([11]; first compound 0.253 µM): 0.762
relative viability ([11]; first compound 0.8 µM): 0.733
relative viability ([11]; first compound 2.53 µM): 0.794
relative viability ([12]; first compound 0.08 µM): 0.336
relative viability ([12]; first compound 0.253 µM): 0.352
relative viability ([12]; first compound 0.8 µM): 0.273
relative viability ([12]; first compound 2.53 µM): 0.3
relative viability ([13]; first compound 0.08 µM): 0.252
relative viability ([13]; first compound 0.253 µM): 0.236
relative viability ([13]; first compound 0.8 µM): 0.242
relative viability ([13]; first compound 2.53 µM): 0.271
relative viability ([14]; first compound 0.08 µM): 0.591
relative viability ([14]; first compound 0.253 µM): 0.583
relative viability ([14]; first compound 0.8 µM): 0.592
relative viability ([14]; first compound 2.53 µM): 0.606
relative viability ([15]; first compound 0.08 µM): 0.356
relative viability ([15]; first compound 0.253 µM): 0.254
relative viability ([15]; first compound 0.8 µM): 0.298
relative viability ([15]; first compound 2.53 µM): 0.387
relative viability ([16]; first compound 0.08 µM): 0.891
relative viability ([16]; first compound 0.8 µM): 0.813
relative viability ([16]; first compound 2.53 µM): 0.875
relative viability ([17]; first compound 0.08 µM): 0.266
relative viability ([17]; first compound 0.253 µM): 0.239
relative viability ([17]; first compound 0.8 µM): 0.212
relative viability ([17]; first compound 2.53 µM): 0.258
relative viability ([18]; first compound 0.08 µM): 0.284
relative viability ([18]; first compound 0.253 µM): 0.331
relative viability ([18]; first compound 0.8 µM): 0.314
relative viability ([18]; first compound 2.53 µM): 0.413
relative viability ([19]; first compound 0.08 µM): 0.747
relative viability ([19]; first compound 0.253 µM): 0.716
relative viability ([19]; first compound 0.8 µM): 0.798
relative viability ([19]; first compound 2.53 µM): 0.77
relative viability ([20]; first compound 0.08 µM): 0.0974
relative viability ([20]; first compound 0.253 µM): 0.099
relative viability ([20]; first compound 0.8 µM): 0.0954
relative viability ([20]; first compound 2.53 µM): 0.0945
relative viability ([21]; first compound 0.08 µM): 0.284
relative viability ([21]; first compound 0.253 µM): 0.229
relative viability ([21]; first compound 0.8 µM): 0.274
relative viability ([21]; first compound 2.53 µM): 0.329
relative viability ([22]; first compound 0.08 µM): 0.327
relative viability ([22]; first compound 0.253 µM): 0.283
relative viability ([22]; first compound 0.8 µM): 0.336
relative viability ([22]; first compound 2.53 µM): 0.424

COc1nc(C)cnc1NS(=O)(=O)c1cccnc1-c1ccc(-c2nnco2)cc1 [Zibotentan] + CS(=O)(=O)N1CCN(Cc2cc3nc(-c4cccc5[nH]ncc45)nc(N4CCOCC4)c3s2)CC1 [Pictilisib] (partner 1 µM)
relative viability ([1]; first compound 0.08 µM): 0.686
relative viability ([1]; first compound 0.253 µM): 0.623
relative viability ([1]; first compound 0.8 µM): 0.772
relative viability ([1]; first compound 2.53 µM): 0.646
relative viability ([2]; first compound 0.08 µM): 0.728
relative viability ([2]; first compound 0.253 µM): 0.662
relative viability ([2]; first compound 0.8 µM): 0.757
relative viability ([2]; first compound 2.53 µM): 0.921
relative viability ([3]; first compound 0.08 µM): 0.653
relative viability ([3]; first compound 0.8 µM): 0.426
relative viability ([3]; first compound 2.53 µM): 0.691
relative viability ([4]; first compound 0.08 µM): 0.568
relative viability ([4]; first compound 0.253 µM): 0.529
relative viability ([4]; first compound 0.8 µM): 0.56
relative viability ([4]; first compound 2.53 µM): 0.56
relative viability ([5]; first compound 0.08 µM): 0.443
relative viability ([5]; first compound 0.253 µM): 0.438
relative viability ([5]; first compound 0.8 µM): 0.351
relative viability ([5]; first compound 2.53 µM): 0.57
relative viability ([6]; first compound 0.08 µM): 0.763
relative viability ([6]; first compound 0.253 µM): 0.667
relative viability ([6]; first compound 0.8 µM): 0.687
relative viability ([6]; first compound 2.53 µM): 0.817
relative viability ([7]; first compound 0.08 µM): 0.145
relative viability ([7]; first compound 0.253 µM): 0.156
relative viability ([7]; first compound 0.8 µM): 0.141
relative viability ([7]; first compound 2.53 µM): 0.148
relative viability ([8]; first compound 0.08 µM): 0.0937
relative viability ([8]; first compound 0.253 µM): 0.23
relative viability ([8]; first compound 0.8 µM): 0.198
relative viability ([8]; first compound 2.53 µM): 0.195
relative viability ([9]; first compound 0.08 µM): 0.687
relative viability ([9]; first compound 0.253 µM): 0.769
relative viability ([9]; first compound 0.8 µM): 0.752
relative viability ([9]; first compound 2.53 µM): 0.851
relative viability ([10]; first compound 0.08 µM): 0.48
relative viability ([10]; first compound 0.253 µM): 0.406
relative viability ([10]; first compound 0.8 µM): 0.527
relative viability ([10]; first compound 2.53 µM): 0.435
relative viability ([11]; first compound 0.08 µM): 0.789
relative viability ([11]; first compound 0.253 µM): 0.546
relative viability ([11]; first compound 0.8 µM): 0.606
relative viability ([11]; first compound 2.53 µM): 0.541
relative viability ([12]; first compound 0.08 µM): 0.429
relative viability ([12]; first compound 0.253 µM): 0.306
relative viability ([12]; first compound 0.8 µM): 0.391
relative viability ([12]; first compound 2.53 µM): 0.345
relative viability ([13]; first compound 0.08 µM): 0.368
relative viability ([13]; first compound 0.253 µM): 0.323
relative viability ([13]; first compound 0.8 µM): 0.338
relative viability ([13]; first compound 2.53 µM): 0.393
relative viability ([14]; first compound 0.253 µM): 0.736
relative viability ([14]; first compound 0.8 µM): 0.748
relative viability ([14]; first compound 2.53 µM): 0.796
relative viability ([15]; first compound 0.08 µM): 0.279
relative viability ([15]; first compound 0.253 µM): 0.127
relative viability ([15]; first compound 0.8 µM): 0.226
relative viability ([15]; first compound 2.53 µM): 0.26
relative viability ([16]; first compound 0.08 µM): 0.525
relative viability ([16]; first compound 0.253 µM): 0.525
relative viability ([16]; first compound 0.8 µM): 0.465
relative viability ([16]; first compound 2.53 µM): 0.474
relative viability ([17]; first compound 0.08 µM): 0.45
relative viability ([17]; first compound 0.253 µM): 0.438
relative viability ([17]; first compound 0.8 µM): 0.355
relative viability ([17]; first compound 2.53 µM): 0.317
relative viability ([18]; first compound 0.08 µM): 0.403
relative viability ([18]; first compound 0.253 µM): 0.462
relative viability ([18]; first compound 0.8 µM): 0.556
relative viability ([18]; first compound 2.53 µM): 0.58
relative viability ([19]; first compound 0.08 µM): 0.441
relative viability ([19]; first compound 0.253 µM): 0.339
relative viability ([19]; first compound 0.8 µM): 0.473
relative viability ([19]; first compound 2.53 µM): 0.481
relative viability ([20]; first compound 0.08 µM): 0.318
relative viability ([20]; first compound 0.8 µM): 0.395
relative viability ([20]; first compound 2.53 µM): 0.378
relative viability ([21]; first compound 0.08 µM): 0.451
relative viability ([21]; first compound 0.253 µM): 0.406
relative viability ([21]; first compound 0.8 µM): 0.582
relative viability ([21]; first compound 2.53 µM): 0.518
relative viability ([22]; first compound 0.08 µM): 0.603
relative viability ([22]; first compound 0.253 µM): 0.456
relative viability ([22]; first compound 0.8 µM): 0.603
relative viability ([22]; first compound 2.53 µM): 0.54
